Experimental data reported in patent publication US20190046662A1, “Compositions and Methods for Treating Neuropathic Pain” (Rutgers, The State University of New Jersey, priority 2016, published 2019).

Molecular target: T1, hSyn-hM4D (Homo sapiens, UniProt P08173, A203G/Y113C)
T1 construct: expressed in transfected cells; host or cells: rat trigeminal ganglion neurons in vivo, viral vector with synapsin promoter
T1 sequence (P08173 1-479 Y113C/A203G): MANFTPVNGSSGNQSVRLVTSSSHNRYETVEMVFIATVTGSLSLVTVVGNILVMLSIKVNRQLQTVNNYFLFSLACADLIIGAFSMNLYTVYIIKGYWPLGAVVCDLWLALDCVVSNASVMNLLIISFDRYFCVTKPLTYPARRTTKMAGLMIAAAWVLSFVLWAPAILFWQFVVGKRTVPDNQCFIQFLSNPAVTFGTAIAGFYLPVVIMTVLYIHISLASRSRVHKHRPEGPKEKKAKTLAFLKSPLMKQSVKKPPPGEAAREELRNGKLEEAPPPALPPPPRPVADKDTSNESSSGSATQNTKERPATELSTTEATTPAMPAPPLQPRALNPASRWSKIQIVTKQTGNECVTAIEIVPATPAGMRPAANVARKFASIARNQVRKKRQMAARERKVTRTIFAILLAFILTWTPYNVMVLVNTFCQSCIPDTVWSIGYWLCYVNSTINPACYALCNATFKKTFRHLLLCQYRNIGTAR
Test: Pin-prick response score, synapsin-DREADD (hSyn-hM4D) in right trigeminal ganglion, non-CCI animals
Format: in vivo, rat
Settings: n=7 per group, CNO i.p. vs vehicle
Description: The effects of synapsin-DREADD activation with CNO on pin-prick response score were also studied (FIG. 4). The pin-prick assay is generally considered a nociceptive threshold test. All animals (males, n=7 per group; females, n=7 per group) had synapsin-DREADD (hSyn-hM4D) injected into the right trigeminal ganglion. Average pin-prick response scores (±SEM) are plotted following intraperitoneal (i.p.) administration of CNO or vehicle.

For `C[N+]1([O-])CCN(C2=Nc3cc(Cl)ccc3Nc3ccccc32)CC1` [CNO, clozapine N-oxide], the “pin-prick response score, contralateral side” value (females, F=0.1, P=0.7) was “no significant effect”, the “pin-prick response score, ipsilateral side” value (females, F=0.1, P=0.8) was “no significant effect” and the “pin-prick response score, contralateral (left) vibrissal pad” value (males, F=1.3, P=0.3) was “No significant effect”. For the same compound, the “pin-prick response score, ipsilateral (right) vibrissal pad” value (males, F=9.8, P=0.01) was “significantly reduced”.
